Source: PubChem BioAssay AID248 (DTP/NCI, 2004)
Where “and” joins values, the source holds several entries; their conditions need not be identical. Identical values can stand only once. Toxic doses and inconclusive results are not listed. Cut-off read from the data, not from the text of the source: active = T/C of 150% or more; inactive = T/C below 125%.

Test system: L1210 leukemia ip in BDF1 mice, survival T/C
Test: NCI In Vivo Anticancer Drug Screen. Data for tumor model L1210 Leukemia (intraperitoneal) in B6D2F1 (BDF1) mice
Settings: higher = longer survival
Procedure, shortened: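 Read-out is survival time, reported as the treated-group measurement over the vehicle-control measurement.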

Measured: T/C

CC1CCC(NC(=O)N(CCCl)N=O)CC1 (stereo unspecified)
active: endpoint: mean survival time, dose: 0.1 mg/kg/injection, schedule: Q01DX001 (ip), vehicle: clinical formulation 211 % of control | endpoint: mean survival time, dose: 0.4 mg/kg/injection, schedule: Q01DX001 (ip), vehicle: clinical formulation 223 % of control | endpoint: mean survival time, dose: 5.0 mg/kg/injection, schedule: Q01DX Z (ip), vehicle: Klucel (hydroxypropylcellulose) (HPC) 205 % of control | endpoint: mean survival time, dose: 6.0 mg/kg/injection, schedule: Q01DX001 (ip), vehicle: other 154 % of control | endpoint: mean survival time, dose: 6.7 mg/kg/injection, schedule: Q04DX004 (ip), vehicle: saline with Tween-80 206 % of control | endpoint: mean survival time, dose: 8.0 mg/kg/injection, schedule: Q01DX001 (ip), vehicle: other 165 % of control | endpoint: mean survival time, dose: 10.0 mg/kg/injection, schedule: Q01DX001 (ip), vehicle: Klucel (hydroxypropylcellulose) (HPC) 445 % of control | endpoint: mean survival time, dose: 10.0 mg/kg/injection, schedule: Q01DX001 (ip), vehicle: clinical formulation 280 % of control | endpoint: mean survival time, dose: 10.0 mg/kg/injection, schedule: Q01DX001 (ip), vehicle: saline 328 % of control | endpoint: mean survival time, dose: 10.0 mg/kg/injection, schedule: Q01DX001 (iv), vehicle: clinical formulation 186 % of control and 205 % of control and 245 % of control | endpoint: mean survival time, dose: 10.0 mg/kg/injection, schedule: Q01DX Z (ip), vehicle: Klucel (hydroxypropylcellulose) (HPC) 240 % of control and 282 % of control | endpoint: mean survival time, dose: 10.0 mg/kg/injection, schedule: Q04DX004 (ip), vehicle: saline with Tween-80 273 % of control | endpoint: mean survival time, dose: 10.7 mg/kg/injection, schedule: Q01DX001 (ip), vehicle: saline with Tween-80 181 % of control | endpoint: mean survival time, dose: 12.0 mg/kg/injection, schedule: Q01DX001 (ip), vehicle: other 213 % of control | endpoint: mean survival time, dose: 12.5 mg/kg/injection, schedule: Q01DX001 (ip), vehicle: other 241 % of control | endpoint: mean survival time, dose: 12.5 mg/kg/injection, schedule: Q01DX001 (ip), vehicle: saline 172 % of control | endpoint: mean survival time, dose: 12.5 mg/kg/injection, schedule: Q07DX003 (ip), vehicle: Klucel (hydroxypropylcellulose) (HPC) 294 % of control | endpoint: mean survival time, dose: 13.0 mg/kg/injection, schedule: Q01DX001 (ip), vehicle: other 196 % of control | endpoint: mean survival time, dose: 15.0 mg/kg/injection, schedule: Q01DX001 (ip), vehicle: clinical formulation 218 % of control | endpoint: mean survival time, dose: 15.0 mg/kg/injection, schedule: Q01DX001 (ip), vehicle: saline 238 % of control | endpoint: mean survival time, dose: 15.0 mg/kg/injection, schedule: Q01DX001 (iv), vehicle: clinical formulation 326 % of control | endpoint: mean survival time, dose: 15.0 mg/kg/injection, schedule: Q01DX001 (iv), vehicle: saline 154 % of control | endpoint: mean survival time, dose: 15.0 mg/kg/injection, schedule: Q04DX004 (ip), vehicle: saline with Tween-80 319 % of control | endpoint: mean survival time, dose: 16.0 mg/kg/injection, schedule: Q01DX001 (ip), vehicle: other 321 % of control | endpoint: mean survival time, dose: 18.0 mg/kg/injection, schedule: Q01DX001 (ip), vehicle: other 265 % of control | endpoint: mean survival time, dose: 20.0 mg/kg/injection, schedule: Q01DX001 (ip), vehicle: Klucel (hydroxypropylcellulose) (HPC) 442 % of control | endpoint: mean survival time, dose: 20.0 mg/kg/injection, schedule: Q01DX001 (iv), vehicle: Klucel (hydroxypropylcellulose) (HPC) 332 % of control | endpoint: mean survival time, dose: 20.0 mg/kg/injection, schedule: Q01DX001 (iv), vehicle: clinical formulation 371 % of control | endpoint: mean survival time, dose: 20.0 mg/kg/injection, schedule: Q01DX Z (ip), vehicle: Klucel (hydroxypropylcellulose) (HPC) 166 % of control | endpoint: mean survival time, dose: 20.0 mg/kg/injection, schedule: Q04DX004 (ip), vehicle: saline with Tween-80 290 % of control | endpoint: mean survival time, dose: 22.0 mg/kg/injection, schedule: Q01DX001 (ip), vehicle: clinical formulation 255 % of control | endpoint: mean survival time, dose: 22.0 mg/kg/injection, schedule: Q01DX001 (ip), vehicle: saline 326 % of control | endpoint: mean survival time, dose: 22.0 mg/kg/injection, schedule: Q01DX001 (iv), vehicle: clinical formulation 250 % of control | endpoint: mean survival time, dose: 22.0 mg/kg/injection, schedule: Q01DX001 (iv), vehicle: saline 202 % of control | endpoint: mean survival time, dose: 24.0 mg/kg/injection, schedule: Q01DX001 (ip), vehicle: other 252 % of control | endpoint: mean survival time, dose: 24.0 mg/kg/injection, schedule: Q01DX001 (ip), vehicle: saline with Tween-80 436 % of control | endpoint: mean survival time, dose: 24.0 mg/kg/injection, schedule: Q01DX001 (oral), vehicle: other 364 % of control | endpoint: mean survival time, dose: 25.0 mg/kg/injection, schedule: Q01DX001 (ip), vehicle: other 300 % of control | endpoint: mean survival time, dose: 25.0 mg/kg/injection, schedule: Q01DX001 (ip), vehicle: saline 382 % of control | endpoint: mean survival time, dose: 25.0 mg/kg/injection, schedule: Q07DX003 (ip), vehicle: Klucel (hydroxypropylcellulose) (HPC) 214 % of control | endpoint: mean survival time, dose: 27.0 mg/kg/injection, schedule: Q01DX001 (ip), vehicle: other 283 % of control | endpoint: mean survival time, dose: 30.0 mg/kg/injection, schedule: Q01DX001 (ip), vehicle: other 321 % of control | endpoint: mean survival time, dose: 31.0 mg/kg/injection, schedule: Q01DX001 (ip), vehicle: other 357 % of control | endpoint: mean survival time, dose: 33.0 mg/kg/injection, schedule: Q01DX001 (ip), vehicle: saline 326 % of control | endpoint: mean survival time, dose: 33.0 mg/kg/injection, schedule: Q01DX001 (iv), vehicle: saline 297 % of control | endpoint: mean survival time, dose: 40.0 mg/kg/injection, schedule: Q01DX001 (ip), vehicle: Klucel (hydroxypropylcellulose) (HPC) 180 % of control | endpoint: mean survival time, dose: 40.0 mg/kg/injection, schedule: Q01DX001 (ip), vehicle: clinical formulation 404 % of control | endpoint: mean survival time, dose: 40.0 mg/kg/injection, schedule: Q01DX001 (iv), vehicle: Klucel (hydroxypropylcellulose) (HPC) 395 % of control | endpoint: mean survival time, dose: 40.0 mg/kg/injection, schedule: Q01DX001 (iv), vehicle: clinical formulation 188 % of control and 251 % of control | endpoint: mean survival time, dose: 45.0 mg/kg/injection, schedule: Q01DX001 (ip), vehicle: other 304 % of control | endpoint: mean survival time, dose: 50.0 mg/kg/injection, schedule: Q01DX001 (ip), vehicle: other 226 % of control | endpoint: mean survival time, dose: 50.0 mg/kg/injection, schedule: Q01DX001 (ip), vehicle: saline 326 % of control and 360 % of control | endpoint: mean survival time, dose: 64.0 mg/kg/injection, schedule: Q04DX002 (ip), vehicle: saline with Tween-80 294 % of control and 313 % of control | endpoint: mean survival time, dose: 67.0 mg/kg/injection, schedule: Q01DX001 (ip), vehicle: other 230 % of control | endpoint: mean survival time, dose: 75.0 mg/kg/injection, schedule: Q01DX001 (ip), vehicle: saline 219 % of control and 296 % of control | endpoint: mean survival time, dose: 91.0 mg/kg/injection, schedule: Q01DX001 (oral), vehicle: other 280 % of control and 306 % of control and 388 % of control | endpoint: median survival time, dose: 1.8 mg/kg/injection, schedule: Q01DX009 (ip), vehicle: saline 318 % of control | endpoint: median survival time, dose: 7.5 mg/kg/injection, schedule: Q01DX009 (ip), vehicle: saline 211 % of control
inactive: endpoint: mean survival time, dose: 0.2 mg/kg/injection, schedule: Q01DX001 (ip), vehicle: clinical formulation 119 % of control | endpoint: mean survival time, dose: 0.45 mg/kg/injection, schedule: Q01DX009 (ip), vehicle: saline with Tween-80 99 % of control and 103 % of control | endpoint: mean survival time, dose: 0.9 mg/kg/injection, schedule: Q01DX009 (ip), vehicle: saline with Tween-80 106 % of control and 118 % of control | endpoint: mean survival time, dose: 1.0 mg/kg/injection, schedule: Q01DX001 (ip), vehicle: other 112 % of control | endpoint: mean survival time, dose: 1.0 mg/kg/injection, schedule: Q04DX002 (ip), vehicle: saline with Tween-80 95 % of control and 100 % of control | endpoint: mean survival time, dose: 2.0 mg/kg/injection, schedule: Q01DX001 (ip), vehicle: other 118 % of control | endpoint: mean survival time, dose: 2.0 mg/kg/injection, schedule: Q01DX009 (ip), vehicle: saline 98 % of control | endpoint: mean survival time, dose: 2.0 mg/kg/injection, schedule: Q04DX002 (ip), vehicle: saline with Tween-80 101 % of control and 120 % of control | endpoint: mean survival time, dose: 2.5 mg/kg/injection, schedule: Q01DX Z (ip), vehicle: Klucel (hydroxypropylcellulose) (HPC) 115 % of control | endpoint: mean survival time, dose: 3.1 mg/kg/injection, schedule: Q07DX003 (ip), vehicle: Klucel (hydroxypropylcellulose) (HPC) 109 % of control | endpoint: mean survival time, dose: 4.0 mg/kg/injection, schedule: Q01DX009 (ip), vehicle: saline 104 % of control | endpoint: mean survival time, dose: 4.0 mg/kg/injection, schedule: Q04DX002 (ip), vehicle: saline with Tween-80 103 % of control and 107 % of control | endpoint: mean survival time, dose: 6.2 mg/kg/injection, schedule: Q07DX003 (ip), vehicle: Klucel (hydroxypropylcellulose) (HPC) 100 % of control | endpoint: mean survival time, dose: 8.0 mg/kg/injection, schedule: Q01DX009 (ip), vehicle: saline 117 % of control | endpoint: mean survival time, dose: 26.0 mg/kg/injection, schedule: Q01DX009 (ip), vehicle: saline with Tween-80 97 % of control and 101 % of control | endpoint: mean survival time, dose: 40.0 mg/kg/injection, schedule: Q04DX004 (ip), vehicle: saline with Tween-80 123 % of control | endpoint: mean survival time, dose: 50.0 mg/kg/injection, schedule: Q07DX003 (ip), vehicle: Klucel (hydroxypropylcellulose) (HPC) 121 % of control | endpoint: mean survival time, dose: 62.0 mg/kg/injection, schedule: Q01DX001 (ip), vehicle: other 109 % of control | endpoint: mean survival time, dose: 72.0 mg/kg/injection, schedule: Q01DX001 (ip), vehicle: other 113 % of control | endpoint: mean survival time, dose: 400.0 mg/kg/injection, schedule: Q01DX001 (ip), vehicle: saline with Tween-80 100 % of control | endpoint: median survival time, dose: 12.5 mg/kg/injection, schedule: Q01DX001 (ip), vehicle: saline with Tween-80 118 % of control and 121 % of control | endpoint: median survival time, dose: 15.0 mg/kg/injection, schedule: Q01DX009 (ip), vehicle: saline 96 % of control | endpoint: median survival time, dose: 100.0 mg/kg/injection, schedule: Q01DX001 (ip), vehicle: saline with Tween-80 106 % of control and 109 % of control
